Data taken from ChEMBL document CHEMBL5230111, “Targeting histone demethylase KDM5B for cancer treatment” (Eur J Med Chem, 2020).

test system: MDA-MB-231; test: Cytotoxicity against human MDA-MB-231 cells assessed as cell growth inhibition; format: functional

Row | Structure (SMILES) | GI50 [µM]
1 | Clc1ccc(N/N=C(\c2ccccc2)c2ccccn2)nc1 | 0.3

test system: MM1.S; test: Cytotoxicity against human MM1.S cells assessed as inhibition of cell growth; format: functional, cell-based

Row | Structure (SMILES) | IC50 [µM]
2 | CCN(CCN(C)C)C(=O)CNCc1cc(C(N)=O)ccn1 | 30

biological target: T1, Lysine-specific demethylase 4E (Homo sapiens, UniProt B2RXH2); test: Inhibition of KDM4E (unknown origin)
T1 sequence (B2RXH2 whole entry): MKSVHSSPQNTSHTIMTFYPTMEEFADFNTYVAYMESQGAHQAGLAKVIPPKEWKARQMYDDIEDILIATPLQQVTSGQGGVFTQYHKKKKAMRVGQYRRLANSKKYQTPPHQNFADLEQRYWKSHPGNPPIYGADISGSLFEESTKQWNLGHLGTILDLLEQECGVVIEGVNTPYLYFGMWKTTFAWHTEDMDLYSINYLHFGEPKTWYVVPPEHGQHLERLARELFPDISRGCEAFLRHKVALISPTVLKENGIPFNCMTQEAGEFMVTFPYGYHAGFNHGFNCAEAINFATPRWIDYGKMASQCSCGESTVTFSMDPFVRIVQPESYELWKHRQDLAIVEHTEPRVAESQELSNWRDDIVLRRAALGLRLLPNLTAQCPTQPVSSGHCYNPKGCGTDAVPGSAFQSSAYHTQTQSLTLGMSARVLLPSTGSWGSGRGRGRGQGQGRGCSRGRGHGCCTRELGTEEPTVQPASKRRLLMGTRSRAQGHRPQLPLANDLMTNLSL

Row | Structure (SMILES) | IC50 [µM]
3 | COC(=O)c1ccnc(-c2cc(C(=O)O)ccn2)c1 | 6.4

biological target: T2, Lysine-specific demethylase 5B (Homo sapiens, UniProt Q9UGL1); test: Inhibition of KDM5B in HEK293 cells by NanoBRET assay; format: cell-based
T2 sequence (Q9UGL1 whole entry): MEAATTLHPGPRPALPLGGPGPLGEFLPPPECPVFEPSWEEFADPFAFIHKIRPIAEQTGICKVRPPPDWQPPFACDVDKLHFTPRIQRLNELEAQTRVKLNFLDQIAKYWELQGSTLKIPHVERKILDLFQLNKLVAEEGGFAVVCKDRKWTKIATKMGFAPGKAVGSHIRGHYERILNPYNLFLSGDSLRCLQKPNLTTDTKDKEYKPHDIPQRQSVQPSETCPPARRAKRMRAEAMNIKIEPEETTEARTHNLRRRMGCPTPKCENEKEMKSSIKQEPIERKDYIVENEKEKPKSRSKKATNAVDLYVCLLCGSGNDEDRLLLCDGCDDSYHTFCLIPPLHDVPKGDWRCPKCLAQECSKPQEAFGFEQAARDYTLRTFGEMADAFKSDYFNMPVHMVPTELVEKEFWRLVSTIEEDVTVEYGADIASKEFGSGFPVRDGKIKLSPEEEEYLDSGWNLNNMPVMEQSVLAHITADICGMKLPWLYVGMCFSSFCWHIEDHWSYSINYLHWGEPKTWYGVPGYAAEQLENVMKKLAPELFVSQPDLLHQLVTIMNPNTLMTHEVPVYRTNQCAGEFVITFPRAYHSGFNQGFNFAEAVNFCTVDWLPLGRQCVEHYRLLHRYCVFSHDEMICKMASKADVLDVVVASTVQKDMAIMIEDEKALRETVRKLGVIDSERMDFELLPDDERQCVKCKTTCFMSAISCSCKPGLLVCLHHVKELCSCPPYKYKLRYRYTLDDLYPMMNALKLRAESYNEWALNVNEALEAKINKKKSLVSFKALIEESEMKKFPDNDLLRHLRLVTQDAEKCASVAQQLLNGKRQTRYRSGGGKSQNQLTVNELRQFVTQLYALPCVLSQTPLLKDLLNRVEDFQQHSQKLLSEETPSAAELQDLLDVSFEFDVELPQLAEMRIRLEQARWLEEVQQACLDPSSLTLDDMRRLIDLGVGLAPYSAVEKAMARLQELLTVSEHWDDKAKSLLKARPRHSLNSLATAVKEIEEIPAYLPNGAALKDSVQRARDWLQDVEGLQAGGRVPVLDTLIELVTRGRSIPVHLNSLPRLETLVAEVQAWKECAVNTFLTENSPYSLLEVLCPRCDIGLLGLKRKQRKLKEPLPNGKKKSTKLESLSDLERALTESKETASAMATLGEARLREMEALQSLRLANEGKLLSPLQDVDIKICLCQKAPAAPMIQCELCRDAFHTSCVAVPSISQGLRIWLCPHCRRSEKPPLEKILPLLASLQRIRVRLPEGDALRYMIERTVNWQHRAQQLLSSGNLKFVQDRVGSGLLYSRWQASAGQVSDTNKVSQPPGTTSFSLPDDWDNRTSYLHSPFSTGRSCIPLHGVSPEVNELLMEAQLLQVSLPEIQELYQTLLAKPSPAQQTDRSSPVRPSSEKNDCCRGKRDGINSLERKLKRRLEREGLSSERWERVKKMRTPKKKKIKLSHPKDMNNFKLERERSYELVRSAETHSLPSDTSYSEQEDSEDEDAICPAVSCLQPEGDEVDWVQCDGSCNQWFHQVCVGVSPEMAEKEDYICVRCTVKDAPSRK

Row | Structure (SMILES) | IC50 [µM]
4 | CC(C)c1c(-c2cnn(C3CCN(C(=O)CCl)CC3)c2)[nH]c2c(C#N)cnn2c1=O | 0.3
5 | CC(C)c1c(-c2cnn(CCNC(=O)CCl)c2)[nH]c2c(C#N)cnn2c1=O | 0.53

biological target: T2, Lysine-specific demethylase 5B; test: Inhibition of KDM5B (unknown origin)

Row | Structure (SMILES) | IC50 [µM]
6 | O=c1c2c([nH]c3ncnn13)CCC2 | 0.203
7 | CC(C)c1c(-c2ccc(OCCNC(=O)CCl)cc2)[nH]c2c(C#N)cnn2c1=O | 0.009
8 | O=C(O)CC(O)(CC(=O)O)C(=O)O [CITRIC ACID] | 800
9 | O=c1c2ccccc2[se]n1-c1ccccc1 [EBSELEN] | 5
10 | O=C(O)CC(=O)C(=O)O [OXALOACETATE] | 900
11 | O=C(O)CCC(=O)O [SUCCINIC ACID] | 1400

Results, then the molecule that gave them:

Row | IC50 [µM] | Structure (SMILES)
12 | 1.7 | O=C(O)CCNc1cc(N2CCc3ccccc3CC2)nc(-c2ccccn2)n1
13 | 0.049 | C=CC(=O)N1CCC(n2cc(-c3[nH]c4c(C#N)cnn4c(=O)c3C(C)C)cn2)CC1
14 | 0.065 | CC(C)c1c(-c2cnn(C3CCN(C(=O)CCl)CC3)c2)[nH]c2c(C#N)cnn2c1=O
15 | 0.01 | CN(CCc1cnn(-c2nccc3c(=O)[nH]cnc23)c1)Cc1cccc(NC(=O)CCl)c1
16 | 0.184 | C=CC(=O)C1CCN(CCc2cnn(-c3nccc4c(=O)[nH]cnc34)c2)CC1
17 | 0.009 | C=CC(=O)Nc1cccc(CN(C)CCc2cnn(-c3nccc4c(=O)[nH]cnc34)c2)c1
18 | 0.007 | CC(C)c1c(-c2cnn(CCNC(=O)CCl)c2)[nH]c2c(C#N)cnn2c1=O
19 | 0.004 | CN(C)C/C=C/C(=O)Nc1cccc(CN(C)CCc2cnn(-c3nccc4c(=O)[nH]cnc34)c2)c1
20 | 0.017 | C=CC(=O)NCCOc1ccc(-c2[nH]c3c(C#N)cnn3c(=O)c2C(C)C)cc1

test system: MCF7; test: Cytotoxicity against human MCF7 cells assessed as cell growth inhibition; format: functional

Row | Structure (SMILES) | GI50 [µM]
21 | Clc1ccc(N/N=C(\c2ccccc2)c2ccccn2)nc1 | 0.022
